Source: US7935182B2, “Solution for wood preservation” (priority 2004, dated 2011)

Assay: copper leaching from wood impregnated with preservative solution
Type: physicochemical

copper leaching rates compared to diethanolamine or triethanolamine (wood impregnated with preservative solution, ethanolamine used as amine source)	Structure (SMILES)	Copper leached in % (wood treated with copper based preservative solution)
	O=S(=O)([O-])[O-].[Cu+2] [Copper (II) sulphate]	45-55%^
Almost ten times lowest	NCCO [ethanolamine]	
